US8829007B2 (priority 2009, dated 2014)
Where a name gives a salt, the structure may show the parent alone. Read-outs that look alike come from different tables or passages of the source.

How the values were obtained:
[1] = tested on: influenza A virus (A/PR/8/34); assay: microbe, parasite or virus in culture; format: cell-based; conditions: read-out: IC50 (mean all)
[2] = tested on: A/PR/8/34 influenza virus; assay: microbe, parasite or virus in culture; format: cell-based; conditions: read-out: EC50 (mean all)
[3] = Influenza A virus, PR/8, MDCK, CPE assay, A/PR/8/34 infected MDCK cells, class symbols
[4] = Influenza A virus, PR/8, MDCK, bDNA assay, A/PR/8/34 influenza virus replication in MDCK cells, class symbols
[5] = CPE assay, A/PR/8/34 infected MDCK cells, class symbols
[6] = bDNA assay, A/PR/8/34 influenza virus replication in MDCK cells, class symbols

Row | Compound | IC50 [1, 3] [µM] | EC50 [2, 4] [µM] | also measured
1 | COCCNC(=O)C(C)(C)N1CCC[C@H](Nc2nc(-c3c[nH]c4ncc(Cl)cc34)ncc2F)C1 [Compound 601] | < 5 | < 5 | 
2 | CC(C)(C(=O)NC1CC1)N1CCC[C@H](Nc2nc(-c3c[nH]c4ncc(Cl)cc34)ncc2F)C1 [Compound 602] | < 5 | < 5 | 
3 | NC(=O)C(O)CN1CCCC(Nc2nc(-c3c[nH]c4ncc(Cl)cc34)ncc2F)C1 [Compound 603, 3-((S)-3-((2-(5-chloro-1H-pyrrolo[2,3-b]pyridin-3-yl)-5-fluoropyrimidin-4-ylamino)piperidin-1-yl)-2-hydroxypropanamide] | < 5 | < 5 | 
4 | O=C(O)C1CNCCC1Nc1nc(-c2c[nH]c3ncc(Cl)cc23)ncc1F (stereo not drawn) [Compound 605] |  |  | IC50 [1, 5]: > 10 µM; EC50 [2, 6]: > 3.3 µM
5 | CNC(=O)C(C)N1CCCC(Nc2nc(-c3c[nH]c4ncc(Cl)cc34)ncc2F)C1 [Compound 606, 2-((S)-3-((2-(5-chloro-1H-pyrrolo[2,3-b]pyridin-3-yl)-5-fluoropyrimidin-4-ylamino)piperidin-1-yl)-N-methylpropanamide] | < 5 | < 5 | 
6 | CC(=O)N1CCC(Nc2nc(-c3c[nH]c4ncc(Cl)cc34)ncc2F)C(C(=O)O)C1 (stereo not drawn) [Compound 607] |  |  | IC50 [1, 5]: > 10 µM; EC50 [2, 6]: > 3.3 µM
7 | CCNC(=O)OC1CCCC(Nc2nc(-c3c[nH]c4ncc(Cl)cc34)ncc2F)C1 (stereo not drawn) [Compound 608, 3-((2-(5-chloro-1H-pyrrolo[2,3-b]pyridin-3-yl)-5-fluoropyrimidin-4-ylamino)cyclohexyl ethylcarbamate] |  |  | IC50 ([1]; Influenza A virus, PR/8, MDCK): < 5 µM; EC50 ([2]; Influenza A virus, PR/8, MDCK): < 5 µM
8 | COCC(O)CN[C@@H]1CCC[C@H](Nc2nc(-c3c[nH]c4ncc(Cl)cc34)ncc2F)C1 (stereo partly drawn) [Compound 610, 1-[[(1R,3S)-3-[[2-(5-chloro-1H-pyrrolo[2,3-b]pyridin-3-yl)-5-fluoro-pyrimidin-4-yl]amino]cyclohexyl]amino]-3-methoxy-propan-2-ol] | < 5 | > 3.3 | 
9 | COCCC(=O)N[C@@H]1CCC[C@H](Nc2nc(-c3c[nH]c4ncc(Cl)cc34)ncc2F)C1 [Compound 611] | < 5 | < 5 | 
10 | NC(=O)CN1CCCC(Nc2nc(-c3c[nH]c4ncc(F)cc34)ncc2F)C1 (stereo not drawn) [Compound 613] |  |  | IC50 [1, 5]: < 5 µM; EC50 [2, 6]: < 5 µM
11 | OC(CN1CCCC(Nc2nc(-c3c[nH]c4ncc(Cl)cc34)ncc2F)C1)C(F)(F)F (stereo not drawn) [Compound 614] |  |  | IC50 [1, 5]: < 5 µM; EC50 [2, 6]: < 5 µM
12 | O[C@H]1[C@@H](Nc2nc(-c3c[nH]c4ncc(Cl)cc34)ncc2F)CCC[C@@H]1O [Compound 615] | < 5 | < 5 | 
13 | O[C@H]1[C@H](O)CCC[C@H]1Nc1nc(-c2c[nH]c3ncc(Cl)cc23)ncc1F [Compound 616] | > 10 | > 3.3 | 
14 | C#CC1(O)CCCC(Nc2nc(-c3c[nH]c4ncc(Cl)cc34)ncc2F)C1 (stereo not drawn) [Compound 617] |  |  | IC50 [1, 5]: < 5 µM; EC50 [2, 6]: < 5 µM
15 | C#CC1(O)CCCC(Nc2nc(-c3c[nH]c4ncc(Cl)cc34)ncc2F)C1 (stereo not drawn) [Compound 618] |  |  | IC50 [1, 5]: < 5 µM; EC50 [2, 6]: < 5 µM
16 | O=C1NCC(CN2CCCC(Nc3nc(-c4c[nH]c5ncc(Cl)cc45)ncc3F)C2)O1 (stereo not drawn) [Compound 619] |  |  | IC50 [1, 5]: < 5 µM; EC50 [2, 6]: < 5 µM
17 | Cc1cnc(-c2c[nH]c3ncc(Cl)cc23)nc1N[C@H]1CCCN(CC(N)=O)C1 [Compound 620] | 5 to 20 | < 5 | 
18 | Fc1cnc(-c2c[nH]c3ncc(Cl)cc23)nc1NC1CCCN(CC2CCOCC2)C1 (stereo not drawn) [Compound 621] |  |  | IC50 [1, 5]: < 5 µM; EC50 [2, 6]: < 5 µM
19 | Fc1cnc(-c2c[nH]c3ncc(Cl)cc23)nc1NC1CCCN(CC2CCOC2)C1 (stereo not drawn) [Compound 622] |  |  | IC50 [1, 5]: < 5 µM; EC50 [2, 6]: < 5 µM
20 | O=C(C(O)CO)N1CCCC(Nc2nc(-c3c[nH]c4ncc(Cl)cc34)ncc2F)C1 (stereo not drawn) [Compound 623] |  |  | IC50 [1, 5]: < 5 µM; EC50 [2, 6]: < 5 µM
21 | O[C@@H]1[C@@H](O)CCC[C@H]1Nc1nc(-c2c[nH]c3ncc(Cl)cc23)ncc1F [Compound 624] | < 5 | 5 to 10 | 

Row | Compound | IC50 [1, 3] [µM] | EC50 [2, 4] [µM] | also measured
22 | O[C@H]1[C@H](O)CCC[C@@H]1Nc1nc(-c2c[nH]c3ncc(Cl)cc23)ncc1F [Compound 625] | < 5 | < 5 | 
23 | CCC1(O)CCCC(Nc2nc(-c3c[nH]c4ncc(Cl)cc34)ncc2F)C1 (stereo not drawn) [Compound 626] | < 5 | < 5 | 
24 | C=CC1(O)CCCC(Nc2nc(-c3c[nH]c4ncc(Cl)cc34)ncc2F)C1 (stereo not drawn) [Compound 627] |  |  | IC50 [1, 5]: < 5 µM; EC50 [2, 6]: < 5 µM
25 | C=CC1(O)CCCC(Nc2nc(-c3c[nH]c4ncc(Cl)cc34)ncc2F)C1 (stereo not drawn) [Compound 628] |  |  | IC50 [1, 5]: < 5 µM; EC50 [2, 6]: < 5 µM
26 | CC(C)(C)c1nc(-c2c[nH]c3ncc(Cl)cc23)nc(N[C@H]2CCCC[C@@H]2C(=O)O)c1F [Compound 629, (1S,2S)-2-(6-tert-butyl-2-(5-chloro-1H-pyrrolo[2,3-b]pyridin-3-yl)-5-fluoropyrimidin-4-ylamino)cyclohexanecarboxylic acid] | < 5 | < 5 | 
27 | O=C(O)[C@@H]1CCC[C@H](Nc2nc(-c3c[nH]c4ncc(Cl)cc34)ncc2F)C1 [Compound 630] | < 5 | < 5 | 
28 | O[C@H]1[C@@H](O)CCC[C@H]1Nc1nc(-c2c[nH]c3ncc(Cl)cc23)ncc1F [Compound 631] | < 5 | < 5 | 
29 | O[C@@H]1[C@H](O)CCC[C@@H]1Nc1nc(-c2c[nH]c3ncc(Cl)cc23)ncc1F [Compound 632] | < 5 | < 5 | 
30 | O=C(N[C@@H]1CCC[C@H](Nc2nc(-c3c[nH]c4ncc(Cl)cc34)ncc2F)C1)C1CCCOC1 (stereo partly drawn) [Compound 633, N-[(1R,3S)-3-[[2-(5-chloro-1H-pyrrolo[2,3-b]pyridin-3-yl)-5-fluoro-pyrimidin-4-yl]amino]cyclohexyl]tetrahydropyran-3-carboxamide hydrochloride] | < 5 | < 5 | 
31 | O=C(CCO)N[C@@H]1CCC[C@H](Nc2nc(-c3c[nH]c4ncc(Cl)cc34)ncc2F)C1 [Compound 634, N-[(1R,3S)-3-[[2-(5-chloro-1H-pyrrolo[2,3-b]pyridin-3-yl)-5-fluoro-pyrimidin-4-yl]amino]cyclohexyl]-3-hydroxy-propanamide hydrochloride] | < 5 | < 5 | 
32 | CC1(C(=O)N[C@@H]2CCC[C@H](Nc3nc(-c4c[nH]c5ncc(Cl)cc45)ncc3F)C2)COC1 [Compound 635, N-[(1R,3S)-3-[[2-(5-chloro-1H-pyrrolo[2,3-b]pyridin-3-yl)-5-fluoro-pyrimidin-4-yl]amino]cyclohexyl]-3-methyl-oxetane-3-carboxamide hydrochloride] | < 5 | < 5 | 
33 | O=C(N[C@@H]1CCC[C@H](Nc2nc(-c3c[nH]c4ncc(Cl)cc34)ncc2F)C1)C1CCOCC1 [Compound 636, N-[(1R,3S)-3-[[2-(5-chloro-1H-pyrrolo[2,3-b]pyridin-3-yl)-5-fluoro-pyrimidin-4-yl]amino]cyclohexyl]tetrahydropyran-4-carboxamide hydrochloride] | < 5 | < 5 | 
34 | O=C(N[C@@H]1CCC[C@H](Nc2nc(-c3c[nH]c4ncc(Cl)cc34)ncc2F)C1)C1CNCCO1 (stereo partly drawn) [Compound 637, N-[(1R,3S)-3-[[2-(5-chloro-1H-pyrrolo[2,3-b]pyridin-3-yl)-5-fluoro-pyrimidin-4-yl]amino]cyclohexyl]morpholine-2-carboxamide bishydrochloride] | < 5 | < 5 | 
35 | O=C(N[C@@H]1CCC[C@H](Nc2nc(-c3c[nH]c4ncc(Cl)cc34)ncc2F)C1)C1CCCO1 (stereo partly drawn) [Compound 638, N-[1R,3S)-3-[[2-(5-chloro-1H-pyrrolo[2,3-b]pyridin-3-yl)-5-fluoro-pyrimidin-4-yl]amino]cyclohexyl]tetrahydrofuran-2-carboxamide hydrochloride] | < 5 | < 5 | 
36 | O=C(N[C@@H]1CCC[C@H](Nc2nc(-c3c[nH]c4ncc(Cl)cc34)ncc2F)C1)C1CCNCC1 [Compound 639, N-[(1R,3S)-3-[[2-(5-chloro-1H-pyrrolo[2,3-b]pyridin-3-yl)-5-fluoro-pyrimidin-4-yl]amino]cyclohexyl]piperidine-4-carboxamide bishydrochloride] |  |  | IC50 ([1]; Influenza A virus, PR/8, MDCK): > 10 µM; EC50 ([2]; Influenza A virus, PR/8, MDCK): > 3.3 µM
37 | CC(O)CC(=O)N[C@@H]1CCC[C@H](Nc2nc(-c3c[nH]c4ncc(Cl)cc34)ncc2F)C1 (stereo partly drawn) [Compound 640, N-[(1R,3S)-3-[[2-(5-chloro-1H-pyrrolo[2,3-b]pyridin-3-yl)-5-fluoro-pyrimidin-4-yl]amino]cyclohexyl]-3-hydroxy-butanamide hydrochloride] | < 5 | < 5 | 
38 | CC(O)C(=O)N[C@@H]1CCC[C@H](Nc2nc(-c3c[nH]c4ncc(Cl)cc34)ncc2F)C1 (stereo partly drawn) [Compound 642, N-[(1R,3S)-3-[[2-(5-chloro-1H-pyrrolo[2,3-b]pyridin-3-yl)-5-fluoro-pyrimidin-4-yl]amino]cyclohexyl]-2-hydroxy-propanamide hydrochloride] | < 5 | < 5 | 
39 | OCC1(O)CCCC(Nc2nc(-c3c[nH]c4ncc(Cl)cc34)ncc2F)C1 (stereo not drawn) [Compound 646] | < 5 | < 5 | 
40 | O=C(N[C@@H]1CCC[C@H](Nc2nc(-c3c[nH]c4ncc(Cl)cc34)ncc2F)C1)N1CCOCC1 [Compound 647] | < 5 | < 5 | 
41 | O=C(N[C@@H]1CCC[C@H](Nc2nc(-c3c[nH]c4ncc(Cl)cc34)ncc2F)C1)OCC1CCOC1 (stereo partly drawn) [Compound 648] | < 5 | < 5 | 
42 | O=C(N[C@@H]1CCC[C@H](Nc2nc(-c3c[nH]c4ncc(Cl)cc34)ncc2F)C1)O[C@H]1CCOC1 [Compound 649] | < 5 | < 5 | 
